According to patent US11344601B2, “Tumor microenvironment-related target TAK1 and application thereof in inhibition of tumor” (Shanghai Institutes for Biological Sciences, Chinese …, priority 2017, dated 2022):

How the values were obtained:
ATM = target: T1, ATM (Homo sapiens, UniProt Q13315); assay: p-ATM antibody-mediated IP of bleomycin-treated PSC27 cells (ATM-TRAF6 interaction); assay type: cell-based; conditions: bleomycin-treated stromal cells
T1 construct: endogenous in cells; host or cells: PSC27 human prostate stromal cells
T1 sequence (Q13315 whole entry): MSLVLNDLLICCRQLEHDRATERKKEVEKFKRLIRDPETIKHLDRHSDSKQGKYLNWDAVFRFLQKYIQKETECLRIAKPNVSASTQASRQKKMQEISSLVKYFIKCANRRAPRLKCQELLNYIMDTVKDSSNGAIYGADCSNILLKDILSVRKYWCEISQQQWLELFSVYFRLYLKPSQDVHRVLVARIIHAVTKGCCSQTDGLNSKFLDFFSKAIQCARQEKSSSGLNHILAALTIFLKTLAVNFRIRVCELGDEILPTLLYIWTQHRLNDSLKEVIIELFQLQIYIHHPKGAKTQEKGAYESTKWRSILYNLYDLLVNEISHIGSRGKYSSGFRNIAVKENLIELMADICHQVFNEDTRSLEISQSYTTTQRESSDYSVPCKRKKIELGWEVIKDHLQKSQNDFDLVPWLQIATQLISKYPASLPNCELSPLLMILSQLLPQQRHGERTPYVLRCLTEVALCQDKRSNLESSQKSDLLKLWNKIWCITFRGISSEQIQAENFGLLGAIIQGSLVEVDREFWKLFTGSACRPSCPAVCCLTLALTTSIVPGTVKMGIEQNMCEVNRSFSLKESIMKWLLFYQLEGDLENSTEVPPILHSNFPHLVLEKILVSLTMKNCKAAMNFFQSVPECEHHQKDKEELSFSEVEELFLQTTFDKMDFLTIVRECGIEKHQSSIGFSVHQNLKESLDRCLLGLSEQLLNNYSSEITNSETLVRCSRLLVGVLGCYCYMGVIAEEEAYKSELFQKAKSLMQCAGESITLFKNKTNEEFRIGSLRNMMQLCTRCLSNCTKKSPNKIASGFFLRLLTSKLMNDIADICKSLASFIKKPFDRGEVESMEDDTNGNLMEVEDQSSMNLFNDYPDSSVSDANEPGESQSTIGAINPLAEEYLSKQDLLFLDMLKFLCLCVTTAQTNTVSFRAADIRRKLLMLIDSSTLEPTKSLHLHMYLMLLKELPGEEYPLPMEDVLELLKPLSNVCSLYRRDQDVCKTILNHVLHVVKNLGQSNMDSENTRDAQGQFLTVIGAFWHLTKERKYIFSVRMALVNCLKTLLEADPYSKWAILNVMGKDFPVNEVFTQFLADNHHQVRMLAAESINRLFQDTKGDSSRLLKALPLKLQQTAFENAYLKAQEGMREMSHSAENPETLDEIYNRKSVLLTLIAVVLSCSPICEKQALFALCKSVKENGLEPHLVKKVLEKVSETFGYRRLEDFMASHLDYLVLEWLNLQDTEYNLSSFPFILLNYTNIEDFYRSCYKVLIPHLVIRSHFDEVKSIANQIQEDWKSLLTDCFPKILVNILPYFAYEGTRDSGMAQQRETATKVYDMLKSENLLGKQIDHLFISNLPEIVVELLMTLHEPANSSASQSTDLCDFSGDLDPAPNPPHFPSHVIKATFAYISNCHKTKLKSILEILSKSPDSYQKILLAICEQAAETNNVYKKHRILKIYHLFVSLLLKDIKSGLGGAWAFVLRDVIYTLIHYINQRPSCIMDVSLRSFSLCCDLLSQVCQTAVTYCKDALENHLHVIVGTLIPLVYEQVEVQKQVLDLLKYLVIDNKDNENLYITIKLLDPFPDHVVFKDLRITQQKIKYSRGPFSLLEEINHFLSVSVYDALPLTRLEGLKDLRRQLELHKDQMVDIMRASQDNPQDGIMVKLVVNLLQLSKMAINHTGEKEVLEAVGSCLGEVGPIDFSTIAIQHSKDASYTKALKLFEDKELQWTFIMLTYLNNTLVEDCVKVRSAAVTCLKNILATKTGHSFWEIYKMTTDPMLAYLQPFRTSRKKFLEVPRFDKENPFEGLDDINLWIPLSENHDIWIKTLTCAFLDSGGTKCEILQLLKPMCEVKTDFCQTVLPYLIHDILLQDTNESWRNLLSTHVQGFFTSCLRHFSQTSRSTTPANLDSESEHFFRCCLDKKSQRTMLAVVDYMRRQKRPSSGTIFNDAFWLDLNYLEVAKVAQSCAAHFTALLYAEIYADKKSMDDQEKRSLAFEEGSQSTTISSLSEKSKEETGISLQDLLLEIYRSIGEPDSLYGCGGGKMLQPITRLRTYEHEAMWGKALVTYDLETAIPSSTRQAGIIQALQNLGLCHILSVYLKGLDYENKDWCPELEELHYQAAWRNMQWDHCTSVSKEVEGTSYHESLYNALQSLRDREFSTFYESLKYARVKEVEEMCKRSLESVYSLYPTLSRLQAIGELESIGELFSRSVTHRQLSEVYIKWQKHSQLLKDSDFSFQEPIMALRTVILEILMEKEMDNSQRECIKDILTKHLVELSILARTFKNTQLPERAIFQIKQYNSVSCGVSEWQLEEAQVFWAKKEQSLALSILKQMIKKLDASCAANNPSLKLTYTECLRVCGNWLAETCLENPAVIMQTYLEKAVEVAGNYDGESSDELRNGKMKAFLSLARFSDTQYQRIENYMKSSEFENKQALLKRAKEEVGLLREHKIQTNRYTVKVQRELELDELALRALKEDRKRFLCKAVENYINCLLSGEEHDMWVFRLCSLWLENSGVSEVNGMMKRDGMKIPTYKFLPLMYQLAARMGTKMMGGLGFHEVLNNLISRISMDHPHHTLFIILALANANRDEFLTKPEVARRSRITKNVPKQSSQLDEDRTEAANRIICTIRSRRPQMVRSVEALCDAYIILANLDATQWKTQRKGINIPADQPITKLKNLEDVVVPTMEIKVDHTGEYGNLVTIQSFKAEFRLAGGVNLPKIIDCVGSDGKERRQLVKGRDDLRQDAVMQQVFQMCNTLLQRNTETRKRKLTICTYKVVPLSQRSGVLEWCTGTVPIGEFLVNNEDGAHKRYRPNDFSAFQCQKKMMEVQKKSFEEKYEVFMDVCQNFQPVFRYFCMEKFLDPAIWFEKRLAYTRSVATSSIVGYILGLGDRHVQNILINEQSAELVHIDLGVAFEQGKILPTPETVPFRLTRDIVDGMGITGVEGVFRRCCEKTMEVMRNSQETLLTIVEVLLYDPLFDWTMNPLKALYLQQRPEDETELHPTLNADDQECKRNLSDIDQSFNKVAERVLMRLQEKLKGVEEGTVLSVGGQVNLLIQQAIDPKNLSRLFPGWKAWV
Procedure: Phosphorylated ATM (p-ATM) antibody-mediated IP analysis. The expression levels of TRAF6, p-ATM and ATM in IP precipitates were detected by Western blot. TRAF6, a loading control. PSC27 was treated with bleomycin (50 ug/ml) and then with the ATM small molecule inhibitor KU55933 (KU, 10 μM).

[1] = system: BCa cell line MDA-MB-231/stromal cell line HBF1203 xenograft tumors; assay: BCa xenograft (MDA-MB-231/HBF1203) preclinical chemotherapy, terminal tumor volume; assay type: in vivo, mice; conditions: chemotherapy alone (group 6 vs group 5), MDA-MB-231/HBF1203 tumors
Procedure: (§1) FIG. 84. Statistical comparative analysis of terminal tumor volumes in BCa tumors transplanted mice (BCa cell line MDA-MB-231/stromal cell line […]1 for administration alone or combined with bleomycin for chemotherapy). […] All experimental mouse experiments were carried out in strict accordance with the relevant regulations of the Institutional animal care and use committee (IACUC) of the shanghai Institute of Life Sciences of the Chinese Academy of Sciences. ICR-SCID mice at an age of about 6 weeks (about 25 g in body weight) were used in this patent-related animal experiment. Stromal cells PSC27 and epithelial cells were mixed at a ratio of 1:4, with each implant containing 1.25×10^6 cells for tissue recombination. The transplant tumor was implanted into mice subcutaneously, and the animals were euthanized at the end of Week 8 after transplantation. The tumor volume was calculated according to the following formula: […] Similarly, lung and breast cancer xenograft tumors were formed by tissue recombination with A549 (non-small cell lung cancer cell line) and W138 (lung fibroblast line), MDA-MB-231 (triple negative breast cancer cell line) and HBF1203 (breast fibroblast line), respectively. In the preclinical chemotherapy trial, mice subcutaneously transplanted with tumors were fed standard experimental diet. […]

[2] = system: NSCLC cell line A549/stromal cell line W138 xenograft tumors; assay: NSCLC xenograft (A549/W138) preclinical chemotherapy, terminal tumor volume; assay type: in vivo, mice; conditions: chemotherapy alone (group 6 vs group 5)
Procedure: as §1, with “83.” for “84.”, “NSCLC” for “BCa”, “(NSCLC” for “(BCa”, “A549/stromal” for “MDA-MB-231/stromal”, “in combination” for “combined”, “bleomycin-based” for “bleomycin for”

interaction between activated ATM and TRAF6 (ATM)	Compound	decrease in terminal tumor volume [1] [%]	decrease in terminal tumor volume [2] [%]
abolished	O=c1cc(-c2cccc3c2Sc2ccccc2S3)oc(N2CCOCC2)c1 [KU55933]		
	bleomycin	32	38
